Where two headings read alike, the source gives them in different places.
Tests used:
[1] = tested on: H460 (lung carcinoma); assay: Cancer screening (MTT growth inhibition), H460; assay type: cell-based; conditions: 72 h; for inhibition at 25 µM: NCI-H460, 25 µM of drug, read-out: Percentage (%) cell growth inhibition; for inhibition at 25 µM / Percentage (%) cell growth inhibition: n = 3, mean ± SEM; for Percentage (%) cell growth inhibition: 25 µM of drug
Method: (§1) All test agents were prepared as stock solutions (20 mM) in dimethyl sulfoxide (DMSO) and stored at −20 °C. Cell lines used in the study included: HT29 (colorectal carcinoma), U87 and SJ-G2 (glioblastoma), MCF-7 (breast carcinoma), A2780 (ovarian carcinoma), H460 (lung carcinoma), A431 (skin carcinoma), Du145 (prostate carcinoma), BE2-C (neuroblastoma), MiaPaCa-2 (pancreatic carcinoma), SMA560 (spontaneous murine astrocytoma), and ADDP (Cis Res Ovarian), together with one non-tumor-derived normal breast cell line (MCF10A). All cell lines were incubated in a humidified atmosphere with 5 % CO2 at 37 °C. The cancer cell lines were maintained in Dulbecco’s modified Eagle’s medium (DMEM; Sigma, Australia) supplemented with fetal bovine serum (10%), sodium pyruvate (10 mM), penicillin (100 IUmL^−1), streptomycin (100 µg mL^−1), and L-glutamine (2 mM).
(§2) Growth inhibition was determined by plating cells in duplicate in medium (100 µL) at a density of 2500–4000 cells per well in 96-well plates. On day 0 (24 h after plating), when the cells are in logarithmic growth, medium (100 µL) with or without the test agent was added to each well. After 72 h of drug exposure, growth inhibitory effects were evaluated using the (3-(4,5-dimethyltiazol-2-yl)-2,5-diphenyltetrazolium bromide) (MTT) assay and absorbance read at 540 nm. The percentage growth inhibition was calculated at a fixed concentration of 25 µM, based on the difference between the optical density values on day 0 and those at the end of drug exposure. Each data point is the mean ± the standard error of the mean (SEM) calculated from three replicates, which were performed on separate occasions and in separate cell line passages.

[2] = tested on: HT29 (colorectal carcinoma); assay: Cancer screening (MTT growth inhibition), HT29; assay type: cell-based; conditions: 72 h; for inhibition at 25 µM: HT-29, 25 µM of drug, read-out: Percentage (%) cell growth inhibition; for inhibition at 25 µM / Percentage (%) cell growth inhibition: n = 3, mean ± SEM; for Percentage (%) cell growth inhibition: 25 µM of drug
Method: as §1, §2

[3] = tested on: bovine liver β-galactosidase; assay: Glycosidase inhibition, bovine liver β-galactosidase; assay type: biochemical; conditions: for inhibition %: in methanol
Source text: (§3) Glycosidase modulation studies need to explore selectivity as well as potency. Our drugs and controls are therefore screened against a panel of glycosidases in methanol (Table 1) to identify the glycosidase-related disease area(s), selectivity profile, and potency of biological action for each drug. The presence of organic boron covalently bonded to the drug structure also grants a reduced toxicity profile. Following the glycosidase inhibition range recommendations, an IC50 value >250 μm denotes weak inhibition, 100–249 μm denotes moderate inhibition, 10–99 μm good inhibition, 0.1–9 μm potent inhibition, and <0.1 μm very potent inhibition. […] Our boronated D-galactose 7 represents a novel lead in glycosidase inhibition.
(§4) The glycosidases screened are the following: rice α-glucosidase, yeast α-glucosidase, Bacillus α-glucosidase, rat intestinal maltase α-glucosidase, almond β-glucosidase, bovine liver β-glucosidase, coffee beans α-galactosidase, bovine liver β-galactosidase, Jack bean α-mannosidase, snail β-mannosidase, Penicillium decumbens α-L-rhamnosidase, bovine kidney α-L-fucosidase, Eschierichia coli β-glucuronidase, bovine liver β-glucuronidase, porcine kidney trehalase, Aspergillus niger amyloglucosidase, and bovine kidney N-acetyl-β-glucosaminidase. The disease areas for each glycosidase are summarized in [1].
(§5) The enzymes α-glucosidase (from yeast), β-glucosidases (from almond and bovine liver), α-galactosidase (from coffee beans), β-galactosidase (from bovine liver), α-mannosidase (from Jack bean), β-mannosidase (from snail), α-L-rhamnosidase (from Penicillium decumbens), α-L-fucosidase (from bovine kidney), trehalase (from porcine kidney), β-glucuronidases (from E. coli and bovine liver), amyloglucosidase (from A. niger), para-nitrophenyl glycosides, and various disaccharides were purchased from Sigma-Aldrich Co.
(§6) Brush border membranes were prepared from the rat small intestine according to the method of Kessler et al. and were assayed at pH 6.8 for rat intestinal maltase using maltose. For rat intestinal maltase, porcine kidney trehalase, and A. niger amyloglucosidase activities, the reaction mixture contained 25 mM maltose and the appropriate amount of enzyme, and the incubations were performed for 10–30 min at 37 °C. The reaction was stopped by heating at 100 °C for 3 min. After centrifugation (600 g; 10 min), the resulting reaction mixture was added to the Glucose CII-test Wako (Wako Pure Chemical Ind., Osaka, Japan). The absorbance at 505 nm was measured to determine the amount of the released D-glucose. Other glycosidase activities were determined using an appropriate para-nitrophenyl glycoside as substrate at the optimum pH of each enzyme. The reaction mixture contained 2 mM of the substrate and the appropriate amount of enzyme. The reaction was stopped by the addition of 400 mM Na2CO3. The released para-nitrophenol was measured spectrometrically at 400 nm. All reactions run in methanol.

[4] = target: rice α-glucosidase (Oryza sativa subsp. japonica, UniProt Q653V7); assay: Glycosidase inhibition, rice α-glucosidase; assay type: biochemical
Source text: as §3, §4, §6

[5] = target: T1, coffee beans α-galactosidase (Coffea arabica, UniProt Q42656); assay: Glycosidase inhibition, coffee beans α-galactosidase; assay type: biochemical
T1 construct: purchased Sigma-Aldrich Co
Source text: as §3, §4, §5, §6

[6] = tested on: BE2-C (neuroblastoma); assay: Cancer screening (MTT growth inhibition), BE2-C; assay type: cell-based; conditions: 72 h; for inhibition at 25 µM / Percentage (%) cell growth inhibition: 25 µM of drug, n = 3, mean ± SEM; for inhibition at 25 µM: read-out: Percentage (%) cell growth inhibition
Method: as §1, §2

[7] = tested on: MCF10A (non-tumor-derived normal breast cell line); assay: Cancer screening (MTT growth inhibition), MCF10A; assay type: cell-based; conditions: 72 h; for inhibition at 25 µM / Percentage (%) cell growth inhibition: 25 µM of drug, n = 3, mean ± SEM; for inhibition at 25 µM: read-out: Percentage (%) cell growth inhibition
Method: as §1
The non-cancer MCF10A cell line was maintained in DMEM:F12 (1:1) cell culture media, 5% heat inactivated horse serum, and supplemented with penicillin (50 IUmL^−1), streptomycin (50 µg mL^−1), HEPES (20 mM), L-glutamine (2 mM), epidermal growth factor (20 ng mL^−1), hydrocortisone (500 ng mL^−1), cholera toxin (100 ng mL^−1), and insulin ([…]).
as §2

[8] = at 1000 μM, in methanol, read-out: inhibition %
[9] = at 1000 μM, read-out: NI: No inhibition
[10] = at 100 μM, in methanol, read-out: inhibition %
[11] = at 100 μM, read-out: NI: No inhibition

T1 sequence (Q42656 16-378): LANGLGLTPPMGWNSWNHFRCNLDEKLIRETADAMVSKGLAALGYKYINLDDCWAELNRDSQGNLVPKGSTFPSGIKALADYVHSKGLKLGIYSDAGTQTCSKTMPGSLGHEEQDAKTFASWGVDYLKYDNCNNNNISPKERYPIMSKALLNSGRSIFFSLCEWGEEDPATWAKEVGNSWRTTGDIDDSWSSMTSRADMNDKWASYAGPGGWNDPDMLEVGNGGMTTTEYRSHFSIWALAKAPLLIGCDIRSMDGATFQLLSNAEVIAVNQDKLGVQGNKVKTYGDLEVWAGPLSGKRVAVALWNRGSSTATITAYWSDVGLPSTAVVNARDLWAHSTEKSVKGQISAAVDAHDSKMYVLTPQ
rice α-glucosidase, sequence (Q653V7 34-885): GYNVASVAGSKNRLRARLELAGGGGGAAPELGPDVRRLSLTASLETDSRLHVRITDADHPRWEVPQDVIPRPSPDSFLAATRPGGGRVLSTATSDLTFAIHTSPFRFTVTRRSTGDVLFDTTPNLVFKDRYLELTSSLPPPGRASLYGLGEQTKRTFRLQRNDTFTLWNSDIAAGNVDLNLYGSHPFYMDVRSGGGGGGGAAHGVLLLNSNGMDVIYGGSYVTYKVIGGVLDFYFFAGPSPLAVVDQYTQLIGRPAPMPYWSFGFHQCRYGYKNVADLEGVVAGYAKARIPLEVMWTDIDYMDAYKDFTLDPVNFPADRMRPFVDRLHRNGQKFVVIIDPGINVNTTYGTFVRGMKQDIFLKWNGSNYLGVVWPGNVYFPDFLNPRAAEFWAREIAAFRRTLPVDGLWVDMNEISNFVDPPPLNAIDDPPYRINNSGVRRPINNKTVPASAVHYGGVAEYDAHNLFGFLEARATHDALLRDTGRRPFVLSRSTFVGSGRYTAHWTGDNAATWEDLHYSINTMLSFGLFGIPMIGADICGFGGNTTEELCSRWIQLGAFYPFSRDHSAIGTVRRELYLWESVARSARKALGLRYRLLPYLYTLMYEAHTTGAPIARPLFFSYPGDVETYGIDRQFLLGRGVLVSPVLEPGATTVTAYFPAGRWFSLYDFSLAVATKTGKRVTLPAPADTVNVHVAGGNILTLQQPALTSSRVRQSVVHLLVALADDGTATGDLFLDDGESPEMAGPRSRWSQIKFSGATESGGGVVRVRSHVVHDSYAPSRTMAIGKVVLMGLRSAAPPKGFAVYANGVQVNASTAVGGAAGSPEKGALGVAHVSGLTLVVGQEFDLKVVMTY

OCC1OC(O)C(O)C(B(O)O)C1O [Compound 7, 3-Boronic-3-Deoxy-D-galactose]
inhibition at 25 µM ([1]; Homo sapiens): 4 ± 1% | GI50 ([1]; Homo sapiens, NCI-H460, dose response, read-out: GI50 = Concentration that inhibits cell growth by 50%): > 50 µM | inhibition at 25 µM ([2]; Homo sapiens): -2 ± 2% | GI50 ([2]; Homo sapiens, HT-29, dose response, read-out: GI50 = Concentration that inhibits cell growth by 50%): > 50 µM | NI: No inhibition ([3]; at 1000 μM): NI (No inhibition (less than 50% inhibition at 1000 μM)) | inhibition % ([3]; at 1000 μM): 40.7% | inhibition at 1000 µM [4, 8]: 33.8% | inhibition at 1000 µM [4, 9]: < 50% | inhibition at 1000 µM [5, 8]: 0% | inhibition at 1000 µM [5, 9]: < 50% | inhibition at 25 µM ([6]; Homo sapiens, BE(2)-C): 1 ± 2% | GI50 ([6]; Homo sapiens, BE(2)-C, dose response, read-out: GI50 = Concentration that inhibits cell growth by 50%): > 50 µM | inhibition at 25 µM ([7]; Homo sapiens, MCF-10A): 7 ± 3% | GI50 ([7]; Homo sapiens, MCF-10A, dose response, read-out: GI50 = Concentration that inhibits cell growth by 50%): > 50 µM

CC1(C)OCC(C2OC3OC(C)(C)OC3C2[B-]23OCC[NH+]2CCO3)O1 [Compound 6, 3-Deoxy-3-Boronodiethanolamine-1,2:5,6-Di-O-isopropylidene-α-D-galactofuranose]
inhibition at 25 µM ([1]; Homo sapiens): 9 ± 2% | inhibition at 25 µM ([2]; Homo sapiens): 10 ± 5% | NI: No inhibition ([3]; at 100 μM): NI (No inhibition (less than 50% inhibition at 100 μM)) | inhibition % ([3]; at 100 μM): 16.3% | inhibition at 100 µM [4, 10]: 5.9% | inhibition at 100 µM [4, 11]: < 50% | inhibition at 100 µM [5, 10]: 0.5% | inhibition at 100 µM [5, 11]: < 50% | inhibition at 25 µM ([6]; Homo sapiens, BE(2)-C): 2 ± 5% | inhibition at 25 µM ([7]; Homo sapiens, MCF-10A): 5 ± 1%

N[C@@H](Cc1ccc(B(O)O)cc1)C(=O)O [BPA, 4-borono-L-phenylalanine]
inhibition at 25 µM ([1]; Homo sapiens): 7 ± 8% | inhibition at 25 µM ([2]; Homo sapiens): 14% | NI: No inhibition ([3]; at 100 μM): NI (No inhibition (less than 50% inhibition at 100 μM)) | inhibition % ([3]; at 100 μM): 10.9% | inhibition at 100 µM [4, 10]: 0% | inhibition at 100 µM [4, 11]: < 50% | inhibition at 100 µM [5, 10]: 4.3% | inhibition at 100 µM [5, 11]: < 50% | inhibition at 25 µM ([6]; Homo sapiens, BE(2)-C): 13 ± 10% | inhibition at 25 µM ([7]; Homo sapiens, MCF-10A): 4 ± 1%

N[C@@H](Cc1ccc(B(O)O)cc1)C(=O)O [^10B-BPA]
Percentage (%) cell growth inhibition [1]: 8 ± 5% | Percentage (%) cell growth inhibition [2]: 15 ± 4% | NI: No inhibition ([3]; at 100 μM): NI (No inhibition (less than 50% inhibition at 100 μM)) | inhibition % ([3]; at 100 μM): 0% | NI: No inhibition ([4]; at 100 μM): NI (No inhibition (less than 50% inhibition at 100 μM)) | inhibition % ([4]; at 100 μM, in methanol): 0% | inhibition % ([5]; at 100 μM, in methanol): 1.2% | Percentage (%) cell growth inhibition [6]: 10 ± 6% | Percentage (%) cell growth inhibition [7]: <0%

Borocaptate sodium [BSH]
Percentage (%) cell growth inhibition [1]: 8 ± 2% | Percentage (%) cell growth inhibition [2]: 3 ± 2% | NI: No inhibition ([3]; at 1000 μM): NI (No inhibition (less than 50% inhibition at 1000 μM)) | inhibition % ([3]; at 1000 μM): 0% | NI: No inhibition ([4]; at 1000 μM): NI (No inhibition (less than 50% inhibition at 1000 μM)) | inhibition % ([4]; at 1000 μM, in methanol): 0% | inhibition % ([5]; at 1000 μM, in methanol): 12.3% | Percentage (%) cell growth inhibition [6]: 10 ± 6% | Percentage (%) cell growth inhibition [7]: 8 ± 3%

Reference: paper PMC10254170, “Diastereoselective Synthesis of the Borylated D-Galactose Monosaccharide 3-Boronic-3-Deoxy-D-Galactose and Biological Evaluation in Glycosidase Inhibition and in Cancer for Boron Neutron Capture Therapy (BNCT)” (Molecules, 2023)
